Reference: patent publication US6482802B1 (Endowment for Research in Human Biology, Inc., priority 1998, dated 2002)
“And” between values parts separate entries of the source, which are not always exact repeats. Equal values may be shown once. “Also recorded” adds a separate entry of the source.

Tests used:
[1] = system: chorioallantoic membrane (CAM) of chick embryos; assay: CAM assay, VEGF-induced angiogenesis; assay type: in vivo; conditions: VEGF 10 ng alone
Protocol: (§1) Angiogenesis was measured on the CAM by the method of Knighton et al. (Knighton et al., 1977, Br. J. Cancer 35:347-356) essentially as described (Fett et al., 1985, Biochemistry 24:5480-5486). Fertilized chicken eggs were kept at 18° C. for 2 days and then incubated in a humidified environment at 37° C. for 3 days. Albumin was aspirated from the embryos and after 24 hours, a “window” was cut through the shell and covered with clear tape. […] After 48-68 hours at 37° C., the growth of blood vessels was observed microscopically and recorded as either positive or negative. A positive response (i.e., an angiogenic response) has a typical “spokewheel” appearance.

[2] = system: HUVE cells; assay: Cytotoxicity against HUVE cells; assay type: cell-based, human; conditions: concentration not given
Protocol: Human umbilical vein endothelial (HUVE) cells were purchased from Cell Systems Corp. (Kirkland, Wash.). […] Cells between passages 5 and 12 inclusive were used for all experiments. Cell numbers were determined with a Coulter counter, and cell viability was measured by trypan blue dye exclusion assay.

[3] = system: HUVE cells; assay: Angiogenin-induced proliferation of HUVE cells; assay type: cell-based, human; conditions: for inhibition of angiogenin-induced cell proliferation: aminoglycoside 100 μM (Table 3); for Cell number / percent of cell number in the presence of 1 μg/ml angiogenin relative to the corresponding control: aminoglycoside 100 μM; for percent of cell number in the presence of 1 μg/ml angiogenin relative to the corresponding control: none: 120
Protocol: (§2) HUVE cells were seeded at 4×10^3 cells/cm^2 in attachment factor (Cell Systems Corp.)-coated 35 mm dishes in HE-SFM, and incubated with 1 μg/ml angiogenin in the presence or absence of inhibitors at 37° C. for 48 hr. Cell were detached by trypsinization and cell numbers were determined with a Coulter counter.

[4] = system: HUVE cells; assay: bFGF-induced proliferation of HUVE cells, aminoglycoside antibiotics; assay type: cell-based, human; conditions: aminoglycoside 100 μM; for % Inhibition of bFGF-induced cell proliferation / bFGF (10 ng/ml) Cell Numbers: bFGF 10 ng/ml; for bFGF (10 ng/ml) Cell Numbers / Control (cell number without bFGF): 48 hr; for bFGF (10 ng/ml) Cell Numbers: control 99000 ± 1000; for Control (cell number without bFGF): no bFGF, control 61300 ± 500
Protocol: as §2
The ability of the other members of the aminoglycoside antibiotic family to inhibit bFGF-induced proliferation of HUVE cells was examined in a similar manner as for angiogenin as described in Section 6.1.1.5, above. HUVE cells, passage 9, were seeded on attachment-factor coated dishes at 50,000 cells per 35 mm dish in HE-SFM. Aminoglycoside antibiotics were added and the cells were incubated with or without […] at 37° C. for 48 hr.

[5] = system: nuclear translocation of 125I-angiogenin in HUVE cells; assay: Nuclear translocation of 125I-angiogenin in HUVE cells; conditions: for Nuclear 125I-angiogenin: 37° C. 30 min, control 3090 ± 260; for Nuclear 125I-angiogenin / % inhibition of nuclear translocation of angiogenin: 125I-angiogenin 1 μg/ml 30 min; for effect on nuclear translocation of 125I-angiogenin: HUVE cells, concentrations as in Table 1
[6] = system: chorioallantoic membrane (CAM) of chick embryos; assay: CAM assay, angiogenin-induced angiogenesis; assay type: in vivo; conditions: for inhibition of angiogenin-induced angiogenesis in CAM assay: in vivo
Protocol: as §1

[7] = system: chorioallantoic membrane (CAM) of chick embryos; assay: CAM assay, bFGF-induced angiogenesis; assay type: in vivo; conditions: bFGF 10 ng alone
Protocol: as §1

[8] = system: chorioallantoic membrane (CAM) of chick embryos; assay: CAM assay, EGF-induced angiogenesis; assay type: in vivo; conditions: EGF 10 ng alone
Protocol: as §1

[9] = system: chorioallantoic membrane (CAM) of chick embryos; assay: CAM assay, aFGF-induced angiogenesis; assay type: in vivo; conditions: aFGF 10 ng alone
Protocol: as §1

[10] = with angiogenin 1 μg/ml, none: 62,500 ± 100
[11] = without angiogenin, none: 52,000 ± 100

Question: VEGF was tested. Which Positive eggs ([1]; 27 total eggs) did it give?
Answer: The Positive eggs was 17.

Question: What about the “% Positive” value ([1]; water 21) of the same molecule?
Answer: Its value is 63%.

Question: Which results are given for gentamicin?
Answer: cytotoxicity against HUVE cells [2]: no cytotoxicity; inhibition of angiogenin-induced cell proliferation [3]: None; Cell number [3, 10]: 55,700 ± 900; Cell number [3, 11]: 45,700 ± 500; percent of cell number in the presence of 1 μg/ml angiogenin relative to the corresponding control [3]: 121%; significant inhibitory effect on cell proliferation induced by bFGF [4]: no; % Inhibition of bFGF-induced cell proliferation [4]: 5%; bFGF (10 ng/ml) Cell Numbers [4]: 98400 ± 1900; Control (cell number without bFGF) [4]: 61800 ± 1200

Question: With `COc1ccc2c(c1)CC[C@@H]1[C@@H]2CC[C@]2(C)[C@@H](NCCCCCCN3C(=O)C=CC3=O)CC[C@@H]12` [U-73122] as the molecule, how does the “Nuclear 125I-angiogenin” value ([5]; inhibitor 10 μM) read?
Answer: Its value is 2140 ± 30 cpm.

Question: And the “% inhibition of nuclear translocation of angiogenin” value ([5]; inhibitor 10 μM, 10 µM)?
Answer: The value was 30% and 31%.

Question: How did the “cytotoxicity against HUVE cells” value [2] turn out when `NCC[C@H](O)C(=O)N[C@@H]1C[C@H](N)[C@@H](O[C@H]2O[C@H](CN)[C@@H](O)[C@H](O)[C@H]2O)[C@H](O)[C@H]1O[C@H]1O[C@H](CO)[C@@H](O)[C@H](N)[C@H]1O` [Amikacin, amikacin] was run?
Answer: Its value is “no cytotoxicity”.

Question: And the “inhibition of angiogenin-induced cell proliferation” value [3]?
Answer: The value was “None”.

Question: And the Cell number [3, 10]?
Answer: The Cell number was 61,000 ± 400.

Question: What about the Cell number [3, 11] of the same molecule?
Answer: The Cell number was 51,700 ± 200.

Question: What about the “percent of cell number in the presence of 1 μg/ml angiogenin relative to the corresponding control” value [3] of the same molecule?
Answer: Its value is 118%.

Question: What about the “significant inhibitory effect on cell proliferation induced by bFGF” value [4] of the same molecule?
Answer: The value was “no”.

Question: And the “% Inhibition of bFGF-induced cell proliferation” value [4]?
Answer: The value was 11%.

Question: And the “bFGF (10 ng/ml) Cell Numbers” value [4]?
Answer: The value was 97600 ± 1300.

Question: What about the “Control (cell number without bFGF)” value [4] of the same molecule?
Answer: The value was 63000 ± 900.

Question: And the “inhibition of angiogenin-induced angiogenesis in CAM assay” value [6]?
Answer: The value was “do not inhibit angiogenin-induced angiogenesis”.

Question: Which results are given for `NC[C@@H]1O[C@H](O[C@H]2[C@@H](O)[C@H](O[C@@H]3[C@@H](O)[C@H](N)C[C@H](N)[C@H]3O[C@H]3O[C@H](CO)[C@@H](O)[C@H](O)[C@H]3N)O[C@@H]2CO)[C@H](N)[C@@H](O)[C@@H]1O` [Paromomycin, paromomycin]?
Answer: cytotoxicity against HUVE cells [2]: no cytotoxicity; inhibition of angiogenin-induced cell proliferation [3]: did not inhibit angiogenin-induced cell proliferation; also recorded: no inhibitory activity at all; Cell number [3, 10]: 58,900 ± 400; Cell number [3, 11]: 50,900 ± 500; percent of cell number in the presence of 1 μg/ml angiogenin relative to the corresponding control [3]: 116%

Question: How did the “cytotoxicity against HUVE cells” value [2] turn out when `[H]/N=C(/N)N[C@H]1[C@H](O)[C@@H](O)[C@H](O[C@@H]2O[C@@H](C)[C@](O)(C=O)[C@H]2O[C@@H]2O[C@@H](CO)[C@H](O)[C@@H](O)[C@@H]2NC)[C@@H](N/C(N)=N\[H])[C@@H]1O` [Streptomycin, streptomycin] was run?
Answer: Its value is “no cytotoxicity”.

Question: And the “inhibition of angiogenin-induced cell proliferation” value [3]?
Answer: Its value is “None”.

Question: And the Cell number [3, 10]?
Answer: The Cell number was 59,900 ± 900.

Question: And the Cell number [3, 11]?
Answer: The Cell number was 51,900 ± 1,300.

Question: And the “percent of cell number in the presence of 1 μg/ml angiogenin relative to the corresponding control” value [3]?
Answer: The value was 115%.

Question: And the “significant inhibitory effect on cell proliferation induced by bFGF” value [4]?
Answer: Its value is “no”.

Question: What about the “% Inhibition of bFGF-induced cell proliferation” value [4] of the same molecule?
Answer: Its value is 0%.

Question: And the “bFGF (10 ng/ml) Cell Numbers” value [4]?
Answer: Its value is 104200 ± 400.

Question: What about the “Control (cell number without bFGF)” value [4] of the same molecule?
Answer: Its value is 62300 ± 600.

Question: And the “inhibition of angiogenin-induced angiogenesis in CAM assay” value [6]?
Answer: The value was “do not inhibit angiogenin-induced angiogenesis”.

Question: Which “cytotoxicity against HUVE cells” value [2] does the source give for `NC[C@H]1O[C@H](O[C@H]2[C@H](O)[C@@H](O[C@H]3O[C@H](CO)[C@@H](O)[C@H](N)[C@H]3O)[C@H](N)C[C@@H]2N)[C@H](O)[C@@H](O)[C@@H]1O` [Kanamycin, kanamycin] here?
Answer: The value was “no cytotoxicity”.

Question: And the Cell number [3, 10]?
Answer: Its Cell number is 58,900 ± 200.

Question: And the Cell number [3, 11]?
Answer: Its Cell number is 48,800 ± 400.

Question: And the “percent of cell number in the presence of 1 μg/ml angiogenin relative to the corresponding control” value [3]?
Answer: The value was 121%.

Question: And the “% Inhibition of bFGF-induced cell proliferation” value [4]?
Answer: Its value is 8%.

Question: What about the “bFGF (10 ng/ml) Cell Numbers” value [4] of the same molecule?
Answer: The value was 98000 ± 2500.

Question: What about the “Control (cell number without bFGF)” value [4] of the same molecule?
Answer: Its value is 62600 ± 1100.

Question: `CN[C@@H]1C[C@H]2O[C@@](C)([C@@H]1OC)n1c3ccccc3c3c4c(c5c6ccccc6n2c5c31)C(=O)NC4` [Staurosporine, staurosporine] was tested. Which “effect on nuclear translocation of 125I-angiogenin” value [5] did it give?
Answer: The value was “only marginally inhibitory; also recorded: do not inhibit nuclear translocation of angiogenin”.

Question: What about the “Nuclear 125I-angiogenin” value ([5]; inhibitor 100 nM) of the same molecule?
Answer: Its value is 2710 ± 70 cpm.

Question: Which “increase of cell number after 48 hr” value ([3]; angiogenin 1 μg/ml, no neomycin) does the source give for “Angiogenin: Human angiogenin (Met-1), recombinant product from an Escherichia coli expression system” here?
Answer: Its value is 35%.

Question: What about the “% Positive (angiogenic response)” value ([6]; angiogenin 10 ng alone, water 20) of the same molecule?
Answer: The value was 55%.

Question: What does the source list for bFGF: basic fibroblast growth factor?
Answer: Positive eggs ([7]; 37 total eggs): 29; % Positive ([7]; water 21): 78%

Question: What does the source list for EGF: epidermal growth factor?
Answer: Positive eggs ([8]; 26 total eggs): 18; % Positive ([8]; water 21): 69%

Question: With `O=c1c(-c2ccc(O)cc2)coc2cc(O)cc(O)c12` [Genistein, genistein] as the molecule, how does the “effect on nuclear translocation of 125I-angiogenin” value [5] read?
Answer: Its value is “no effect; also recorded: do not inhibit nuclear translocation of angiogenin”.

Question: What about the inhibition at 100 µM ([5]; Homo sapiens, 0.5 h, read-out: % inhibition of nuclear translocation of angiogenin) of the same molecule?
Answer: The inhibition at 100 µM was 0%.

Question: What about the “Nuclear 125I-angiogenin” value ([5]; inhibitor 100 μM) of the same molecule?
Answer: The value was 3300 ± 170 cpm.

Question: For aFGF: acidic fibroblast growth factor, which Positive eggs ([9]; 49 total eggs) is on record?
Answer: The Positive eggs was 36.

Question: What about the “% Positive” value ([9]; water 21) of the same molecule?
Answer: The value was 73%.

Question: What does the source list for `COc1ccc2c(c1)CC[C@@H]1[C@@H]2CC[C@]2(C)[C@@H](NCCCCCCN3C(=O)CCC3=O)CC[C@@H]12` [U-73343]?
Answer: effect on nuclear translocation of 125I-angiogenin [5]: no effect; Nuclear 125I-angiogenin ([5]; inhibitor 10 μM): 2890 ± 100 cpm; % inhibition of nuclear translocation of angiogenin ([5]; inhibitor 10 μM): 6%
